Source: patent US20230256217A1, “OZONE GENERATION APPARATUSES AND METHODS OF TREATING WOUNDS” (priority 2020, published 2023)

Tests used:
P. aeruginosa [1] = assay: Adjunct ozone and antibiotic therapy antibacterial test; format: cell-based; conditions: ozone 100 ppm (4 mg/hr) for six hours; antibiotic 20 μg/mL; 37° C.
Procedure: To test the antibacterial effects of ozone in combination with antibiotics, a P. aeruginosa culture was inoculated in a solution of […] soy broth (TSB) and incubated overnight. A sample of the mature culture was diluted in new TSB at 1:50. The new culture media was then pipetted into test wells in triplicate at 1:10 with either linezolid or vancomycin solution in phosphate buffered saline (PBS) at 200 μg/mL. […] The bacterial samples were subject to the combination treatment of 100 ppm (4 mg/hr) ozone with vancomycin at 20 μg/mL and linezolid at 20 μg/mL. During testing, the test samples were kept at 37° C. At 2, 4, and six hours, 20 μL samples were withdrawn from the designated set of wells and plated on TSB agar plates. Bacterial colonies were counted after being incubated overnight at 37°. Experimental adjunct therapy samples were compared against treatment of only ozone, and control cultures exposed to antibiotics without the ozone. Because both antibiotics in the test (linezolid and vancomycin) are designed to be effective against G+ve bacteria, it was expected that neither will show any effect against the bacterial strain unless combined with ozone. Additionally, treatment was administered to in vitro colonies of P. aeruginosa under ideal conditions for bacterial growth.

P. aeruginosa [2] = conditions: cited from earlier work
S. epidermidis = conditions: cited from earlier work
P. aeruginosa ATCC 15442 = assay: Antibacterial test of ozone applied by the patch; format: cell-based; conditions: initial 5 log CFU/mL concentration; within six hours of treatment
Procedure: (§1) The antibacterial properties of the patch 10 were assessed by exposing multiple strains of antibiotic resistant bacteria (both Gram-negative and Gram-positive) to the ozone applied by the patch 10 for six hours, and measuring the living concentration every one to two hours. Experiments using two common strains of antibiotic resistant bacteria common in skin infections, S. epidermidis NRS101 and P. aeruginosa ATCC 15442, indicated positive results. […] FIGS. 8A through 8C show bacteria stain images of the samples before and after treatment, and a control. At first, all of the bacteria were stained green, and then any dead bacteria were re-stained with the red. These images show qualitatively that the bacteria before the treatment are living, and afterward are mostly dead. […] Additionally, results for the Gram-negative bacteria, P. aeruginosa, indicated even better results. […] FIGS. 8D, 8E, and 8F show similar stain images for P. aeruginosa.

S. epidermidis NRS101 = assay: Antibacterial test of ozone applied by the patch; format: cell-based; conditions: six hours of ozone exposure through the patch
Procedure: as §1

P. aeruginosa [3] = assay: Secondary study: pristine vs biofluid-preconditioned patch, bacteria spotted on filter paper; format: cell-based; conditions: ozone for six hours
Procedure: A secondary study was also conducted on P. aeruginosa to verify that prolonged contact to a wound environment would not change antimicrobial properties. In each case, 100 μL of P. aeruginosa was diluted into 1 mL of PBS and spotted onto filter paper. Each experimental trial was exposed to the ozone for six hours. The first test was conducted through an untreated patch 10, while the second was conducted using a patch 10 that had been preconditioned by resting on a damp sponge filled with mammalian cell culture media overnight. FIGS. 9A and 9B report the results of the tests when compared to the controls, which were prepared in the same way, but exposed to no ozone treatment.

[4] = system: normal mammary fibroblasts HMS-32 cells; assay: Cytotoxicity of ozone treatment on human cells; format: cell-based
Procedure: FIGS. 10A through 10D include images of normal mammary fibroblasts HMS-32 cells initial (FIG. 10A), after six hours of ozone treatment (FIG. 10B), 24 hours after ozone treatment (FIG. 10C), and 48 hours after ozone treatment (FIG. 10D). Scale bar 10 micrometers. FIG. 10E contains a graph showing percentage of apoptotic cells at each time in a control group and an experimental group. Data was collected from triplicate samples, with error bars indicating standard deviation.
The possibility for the use of ozone to treat antibiotic resistant infections is also dependent on the apparatus not damaging the normal skin cells. Cytotoxic experimentation was conducted to determine how the ozone treatment would interact with human skin cells (FIG. 10A through 10D). […] Ozone treatment has been used to increase the healing process for chronic wounds, so there is good reason to believe a high level of biocompatibility exists. […] Similar to the stain imaging done for the antimicrobial results, FIGS. 10A through 10D are stain images that show the health of the cells at each time point. In each cell, F-actin was stained green, and the nuclei were stained blue. These images support finding minimal cytotoxicity because there is no noticeable difference in the images over time. […]

human keratinocyte cells = assay: Biocompatibility of adjunct therapy; format: cell-based; conditions: six hour, 100 ppm ozone; nanofiber solution with or without antibiotic
Procedure: By studying the biocompatibility, it was determined that the treatment system was both effective and safe to use. To test this, human keratinocyte cells were either exposed to the ozone therapy (with or without antibiotics) or left as a control. In each case, cell samples were exposed to test inhibitory concentration of the nanofiber solution containing either linezolid, vancomycin, or no antibiotic. Tests were conducted under the same six hour and 100 ppm ozone parameters as the antibacterial studies.

For `CC(=O)NC[C@H]1CN(c2ccc(N3CCOCC3)c(F)c2)C(=O)O1` [linezolid], the “bacterial population (CFU/mL) compared to initial” value (P. aeruginosa [1]) was “did not inhibit the growth of the bacteria at all”.

In the case of penicillin, the “known effectiveness / resistance” value (P. aeruginosa [2]) is given as “resisted” and the “known effectiveness / resistance” value (S. epidermidis) is given as “resisted”.

For `Cc1onc(-c2ccccc2)c1C(=O)N[C@@H]1C(=O)N2[C@@H]1SC(C)(C)[C@@H]2C(=O)O` [oxacillin], the “known effectiveness / resistance” value (S. epidermidis) is given as “resisted”.

For colistin, the “known effectiveness / resistance” value (P. aeruginosa [2]) is given as “known to be effective”.

With `O=[O+][O-]` [ozone] the eradication of bacteria (P. aeruginosa ATCC 15442) was “completely eradicate”, the “log10 reduction CFU/mL” value (S. epidermidis NRS101) was 0.8 log10 reduction CFU/mL and the “reduction from the starting inoculum” value (S. epidermidis NRS101) was “greater than 70%”. For the same compound, the elimination of bacteria (P. aeruginosa [3]; patch preconditioned overnight on sponge with mammalian cell culture media) was “complete elimination of bacteria”, the elimination of bacteria (P. aeruginosa [3]; untreated (pristine) patch) was “complete elimination of bacteria” and the “increase in cell apoptosis” value ([4]; after six, 24 and 48 hours) was “no significant increase in cell apaptosis”. The “increase in cell apoptosis” value ([4]; over 48 hours after six hours of ozone exposure) was 6.5% and the “percent of cell viability” value (human keratinocyte cells) was “did not significantly change”.

In the case of `NC[C@H]1O[C@H](O[C@H]2[C@H](O)[C@@H](O[C@H]3O[C@H](CO)[C@@H](O)[C@H](N)[C@H]3O)[C@H](N)C[C@@H]2N)[C@H](N)C[C@@H]1O` [tobramycin], the “known effectiveness / resistance” value (P. aeruginosa [2]) is given as “resisted”.

In the case of `C[C@@H](O)[C@H]1C(=O)N2C(C(=O)O)=C(S[C@@H]3CN[C@H](C(=O)N(C)C)C3)[C@H](C)[C@H]12` [meropenem], the “known effectiveness / resistance” value (P. aeruginosa [2]) is given as “known to be effective”.

For `CN[C@H](CC(C)C)C(=O)N[C@H]1C(=O)N[C@@H](CC(N)=O)C(=O)N[C@H]2C(=O)N[C@H]3C(=O)N[C@H](C(=O)N[C@H](C(=O)O)c4cc(O)cc(O)c4-c4cc3ccc4O)[C@H](O)c3ccc(c(Cl)c3)Oc3cc2cc(c3O[C@@H]2O[C@H](CO)[C@@H](O)[C@H](O)[C@H]2O[C@H]2C[C@](C)(N)[C@H](O)[C@H](C)O2)Oc2ccc(cc2Cl)[C@H]1O` [vancomycin], the “bacterial population (CFU/mL) compared to initial” value (P. aeruginosa [1]) is given as “no impact on bacteria growth” and the “known effectiveness / resistance” value (S. epidermidis) is given as “known to be effective”.
